The values below come from publication PMC12699035, “Exploring market-approved azoles as potential breast cancer therapeutics targeting the VEGFR-2 biotarget” (Scientific Reports, 2025).

Where two headings read alike, the source gives them in different places.

The subject of one experiment is MCF-10A cells. Briefly: Cytotoxicity against MCF-10A cells, MTT assay (five doses). In kind it is cell-based. Conditions: Homo sapiens, MCF-10A normal cells, five dose concentrations, n = 3, read-out: MCF-10A IC50 ± SD. In general terms: Tetrazolium dyes change colour on reduction, which living cells bring about.
Another experiment concerns MCF-7 cells. As to the kind of experiment: Cytotoxicity against MCF-7 cells, MTT assay (single dose and five doses). To be noted: for Average OD / OD1 / OD2 / OD3: MCF-7, single dose 100 μg/mL, MTT optical density; for Average OD: average of triplicates; for OD1: replicate 1; for OD2: replicate 2; for OD3: replicate 3.
In a further experiment the target is T1, VEGFR-2 (Homo sapiens, UniProt P35968).
T1 construct: purchased BPS Bioscience 40325
T1 sequence (P35968 20-1356): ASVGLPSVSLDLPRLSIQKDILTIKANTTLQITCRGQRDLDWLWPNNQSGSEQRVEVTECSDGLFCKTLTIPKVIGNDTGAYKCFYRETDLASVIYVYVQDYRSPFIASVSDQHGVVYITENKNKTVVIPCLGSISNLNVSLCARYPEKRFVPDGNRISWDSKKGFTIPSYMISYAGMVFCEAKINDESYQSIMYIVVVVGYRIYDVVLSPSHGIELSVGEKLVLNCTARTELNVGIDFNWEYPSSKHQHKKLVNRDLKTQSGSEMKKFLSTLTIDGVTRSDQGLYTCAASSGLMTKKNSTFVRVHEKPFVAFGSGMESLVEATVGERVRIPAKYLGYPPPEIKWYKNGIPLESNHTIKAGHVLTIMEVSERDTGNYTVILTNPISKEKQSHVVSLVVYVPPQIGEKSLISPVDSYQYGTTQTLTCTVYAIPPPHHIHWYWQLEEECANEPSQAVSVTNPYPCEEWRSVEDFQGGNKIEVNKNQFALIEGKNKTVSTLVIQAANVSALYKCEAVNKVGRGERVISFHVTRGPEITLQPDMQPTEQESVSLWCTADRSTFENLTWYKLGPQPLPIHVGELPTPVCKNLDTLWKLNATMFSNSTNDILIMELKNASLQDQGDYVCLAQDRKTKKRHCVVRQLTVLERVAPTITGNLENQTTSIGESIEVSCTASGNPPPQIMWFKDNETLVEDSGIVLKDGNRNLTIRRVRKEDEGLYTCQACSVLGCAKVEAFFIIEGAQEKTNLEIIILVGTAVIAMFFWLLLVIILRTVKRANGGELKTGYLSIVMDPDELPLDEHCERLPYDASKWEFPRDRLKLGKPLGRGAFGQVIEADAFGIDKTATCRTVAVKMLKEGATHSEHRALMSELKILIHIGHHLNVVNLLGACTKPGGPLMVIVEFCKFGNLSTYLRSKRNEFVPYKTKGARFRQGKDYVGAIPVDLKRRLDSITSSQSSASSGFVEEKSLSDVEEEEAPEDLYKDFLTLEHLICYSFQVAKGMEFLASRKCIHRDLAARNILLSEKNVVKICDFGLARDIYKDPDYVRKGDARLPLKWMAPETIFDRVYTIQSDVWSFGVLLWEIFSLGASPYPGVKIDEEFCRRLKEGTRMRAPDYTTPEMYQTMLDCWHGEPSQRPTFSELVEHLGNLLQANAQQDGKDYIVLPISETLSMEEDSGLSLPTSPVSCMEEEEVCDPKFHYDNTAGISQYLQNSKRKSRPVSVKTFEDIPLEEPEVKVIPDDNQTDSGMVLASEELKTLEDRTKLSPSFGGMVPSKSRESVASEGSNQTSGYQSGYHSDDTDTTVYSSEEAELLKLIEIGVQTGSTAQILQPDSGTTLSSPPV
Briefly: VEGFR-2 kinase inhibition, luminescent VEGFR2 (KDR) kinase assay kit (BPS Bioscience # 40325). In kind it is biochemical. Conditions: for VEGFR-2 enzyme inhibition LogIC50 (Fig. 3): unit not given. As to the method:
Functionally, this pathway operates in autocrine and intracrine modes to promote cell proliferation, survival, and resistance to apoptosis through downstream effectors such as PI3K/AKT and p38 MAPK.
SIT, FLU and TNZ were tested using the five dose sigmoidal curves to determine the IC50 values. […] At the end of these experiment, anti-tumor potentiality was recorded using tumor weight (mg), tumor volume (mm^3), and the tumor inhibition ratio (TIR%). Hematological parameters of Hemoglobin (Hb, g/dL), RBC’s count (10^6/μL), and WBC’s count (10^3/μL) were investigated, along with histopathological and immunohistochemical staining of the VEGR2 protein.
Compounds Itraconazole. […] [12].

Where [1] appears, read: Homo sapiens, MCF7, read-out: Average viability%.
[2] abbreviates: Homo sapiens, MCF7, read-out: MCF-7 IC50 ± SD, MCF-7, five dose concentrations, MTT, n = 3.
[3] abbreviates: Homo sapiens, MCF7, read-out: Viability (%) 1.
[4] abbreviates: Homo sapiens, MCF7, read-out: Viability (%) 2.
Setting [5] is: Homo sapiens, MCF7, read-out: Viability (%) 3.
Setting [6] is: enzyme inhibition, dose-response, non-linear regression, read-out: VEGFR-2 inhibition IC50.

With `COc1cccc2c1C(=O)c1c(O)c3c(c(O)c1C2=O)C[C@@](O)(C(=O)CO)C[C@@H]3O[C@H]1C[C@H](N)[C@H](O)[C@H](C)O1` [DOX, doxorubicin], the IC50 with MCF-10A cells is 38.9 ± 1.1 µM; in the experiment with MCF-7 cells (setting [2]) it was 3.91 ± 0.6 µM. Moreover, the viability at 100 µg/mL in the experiment with MCF-7 cells (setting [1]) was determined as 46.2%; with MCF-7 cells (setting [3]), 41.9%; in the experiment on MCF-7 cells (setting [4]), 42.9%; in the experiment with MCF-7 cells (setting [5]) it was 53.6%. Besides, the “Average OD” value with MCF-7 cells worked out at 1.49. The compound also displayed an OD1 in the experiment on MCF-7 cells of 1.35. The same compound showed an OD2 in the experiment with MCF-7 cells of 1.38. The OD3 in the experiment on MCF-7 cells is reported as 1.73.

Consider `O=C1CN(/N=C/c2ccc(-c3ccc([N+](=O)[O-])cc3)o2)C(O)=N1` [Dantrolene, dantrolene], for which the viability at 100 µg/mL in the experiment with MCF-7 cells (setting [1]) is 70%; in the experiment on MCF-7 cells (setting [3]) it was 72%; in the experiment on MCF-7 cells (setting [4]), 65.7%; with MCF-7 cells (setting [5]), 72.5%. Further, the “Average OD” value in the experiment with MCF-7 cells is 2.26. In addition, in the experiment with MCF-7 cells, the OD1 was determined as 2.32. The OD2 in the experiment with MCF-7 cells is 2.12. The compound also yielded an OD3 in the experiment with MCF-7 cells of 2.34.

For `OC(Cn1cncn1)(Cn1cncn1)c1ccc(F)cc1F` [Fluconazole, fluconazole], the “VEGFR-2 enzyme inhibition LogIC50 (Fig. 3)” value on VEGFR-2 (dose-response curve fit) is reported as 2.535. In addition, the IC50 on VEGFR-2 (setting [6]) turned out to be 343000 nM; with MCF-10A cells, 32.3 ± 1.77 µM; with MCF-7 cells (setting [2]) it was 260 µM; in the experiment with MCF-7 cells (read-out: MCF-7 IC50 ± SD, MCF-7, five dose concentrations, MTT, n = 3, listed as FLU), 261 ± 6.8 µM. Besides, the viability at 100 µg/mL was found to be 64.3% in the experiment with MCF-7 cells (setting [1]), 62.7% in the experiment on MCF-7 cells (setting [3]), 67.3% with MCF-7 cells (setting [4]) and 62.9% in the experiment on MCF-7 cells (setting [5]). Besides, the “Average OD” value in the experiment on MCF-7 cells was found to be 2.07. The OD1 with MCF-7 cells is 2.02. The same compound gave an OD2 with MCF-7 cells of 2.17. The compound also returned an OD3 in the experiment with MCF-7 cells of 2.03.

With `CCCCc1nc(Cl)c(CO)n1Cc1ccc(-c2ccccc2-c2nn[nH]n2)cc1` [Losartan, losartan], the viability at 100 µg/mL with MCF-7 cells (setting [1]) came to 71%. Further, the viability at 100 µg/mL in the experiment on MCF-7 cells (setting [3]) was 71.4%. Also, the viability at 100 µg/mL in the experiment on MCF-7 cells (setting [4]) stood at 69.1%. Also, the viability at 100 µg/mL in the experiment with MCF-7 cells (setting [5]) turned out to be 72.3%. Besides, in the experiment with MCF-7 cells, the “Average OD” value is on record as 2.29, the OD1 was 2.30, the OD2 was 2.23 and the OD3 is 2.33.

As to `Clc1ccc(COC(Cn2ccnc2)c2ccc(Cl)cc2Cl)c(Cl)c1` (centres unmarked) [Miconazole, miconazole], the viability at 100 µg/mL in the experiment on MCF-7 cells (setting [1]) is 76%. Further, the viability at 100 µg/mL with MCF-7 cells (setting [3]) was determined as 77%. Also, in the experiment on MCF-7 cells (setting [4]), the viability at 100 µg/mL turned out to be 76%. Also, the viability at 100 µg/mL with MCF-7 cells (setting [5]) was found to be 75%. In addition, in the experiment with MCF-7 cells, the “Average OD” value stood at 2.45, the OD1 is recorded as 2.48, the OD2 amounted to 2.45 and the OD3 amounted to 2.42.

Take `N[C@@H](CC(=O)N1CCn2c(nnc2C(F)(F)F)C1)Cc1cc(F)c(F)cc1F` [Sitagliptin, sitagliptin]: at VEGFR-2 (dose-response curve fit), the “VEGFR-2 enzyme inhibition LogIC50 (Fig. 3)” value amounted to 2.016. Moreover, the IC50 at VEGFR-2 (setting [6]) turned out to be 104000 nM; in the experiment on MCF-10A cells, 37.6 ± 1.9 µM; in the experiment with MCF-7 cells (setting [2]) it was 183 µM; in the experiment on MCF-7 cells (read-out: MCF-7 IC50 ± SD, MCF-7, five dose concentrations, MTT, n = 3, listed as SIT), 183 ± 3.1 µM. In addition, the viability at 100 µg/mL in the experiment with MCF-7 cells (setting [1]) was 64.6%; in the experiment on MCF-7 cells (setting [3]), 65.7%; in the experiment on MCF-7 cells (setting [4]), 64.4%; with MCF-7 cells (setting [5]) it was 63.8%. Also, the “Average OD” value in the experiment on MCF-7 cells is recorded as 2.08. Further, the OD1 in the experiment with MCF-7 cells worked out at 2.12. The compound also displayed an OD2 with MCF-7 cells of 2.08. Further, the OD3 in the experiment with MCF-7 cells was 2.06.

`CCS(=O)(=O)CCn1c([N+](=O)[O-])cnc1C` [Tinidazole, tinidazole]: the IC50 on VEGFR-2 (dose-response curve fit, unit inferred, read-out: VEGFR-2 enzyme inhibition IC50 (Fig. 3)) was determined as 81900 nM; on VEGFR-2 (enzyme inhibition, unit printed as nM in text, read-out: VEGFR-2 inhibition IC50), 81900 nM; in the experiment on MCF-10A cells, 51.5 ± 1.8 µM; in the experiment on MCF-7 cells (setting [2]), 301 µM; in the experiment with MCF-7 cells (read-out: MCF-7 IC50 ± SD, MCF-7, five dose concentrations, MTT, n = 3, listed as TNZ) it was 301 ± 7.6 µM. On VEGFR-2 (dose-response curve fit), the “VEGFR-2 enzyme inhibition LogIC50 (Fig. 3)” value is reported as 1.913. Also, the viability at 100 µg/mL with MCF-7 cells (setting [1]) was 67.5%; in the experiment with MCF-7 cells (setting [3]), 68.2%; in the experiment on MCF-7 cells (setting [4]), 66.2%; in the experiment on MCF-7 cells (setting [5]), 68%. Also, the “Average OD” value in the experiment on MCF-7 cells is reported as 2.16. For the same compound, the OD1 with MCF-7 cells is on record as 2.20. In the experiment with MCF-7 cells, this compound displayed an OD2 of 2.14. For the same compound, the OD3 with MCF-7 cells came out at 2.19.

One may read the viability as the share of living cells, or the viability signal relative to a control.
